Where two headings read alike, the source gives them in different places.
Tested on: panel of 55 breast cancer cell lines
Assay: Cell growth inhibition assay (Cell Titer Glo, 72 h, 9 doses; GI50, TGI, LC50)
Format: cell-based, human
Conditions: Homo sapiens, read-out: GI50 (converted)
[1] = CAMA-1, CAMA1 cell line, censored GI50 values
[2] = HCC1500, HCC1500 cell line, censored GI50 values
[3] = HCC1806, HCC1806 cell line, censored GI50 values
[4] = HCC1954, HCC1954 cell line, censored GI50 values

CC(=O)O[C@H]1C(=O)[C@@]2(C)[C@H]([C@H](OC(=O)c3ccccc3)[C@]3(O)C[C@H](OC(=O)[C@H](O)[C@@H](NC(=O)c4ccccc4)c4ccccc4)C(C)=C1C3(C)C)[C@]1(OC(C)=O)CO[C@@H]1C[C@@H]2O [Paclitaxel]
GI50 (600MPE cell line, censored GI50 values): 0.0661 µM
GI50 (AU565, AU565 cell line, censored GI50 values): 0.00813 µM
GI50 (AU565, cell line AU565): 0.00813 µM
GI50 (BT-474, BT474 cell line, censored GI50 values): 0.0102 µM
GI50 (BT-474, cell line BT474): 0.0102 µM
GI50 (BT-483, BT483 cell line, censored GI50 values): 0.0347 µM
GI50 (BT-483, cell line BT483): 0.0347 µM
GI50 [1]: 0.0112 µM
GI50 (CAMA-1, cell line CAMA1): 0.0112 µM
GI50 (HCC38, cell line HCC38): 0.00741 µM
GI50 (HCC70, cell line HCC70): 0.00813 µM
GI50 (HCC202, cell line HCC202): 0.00794 µM
GI50 (HCC1143, HCC1143 cell line, censored GI50 values): 0.017 µM
GI50 (HCC1143, cell line HCC1143): 0.017 µM
GI50 (HCC1187, HCC1187 cell line, censored GI50 values): 0.00891 µM
GI50 (HCC1187, cell line HCC1187): 0.00891 µM
GI50 (HCC1395, HCC1395 cell line, censored GI50 values): 0.0158 µM
GI50 (HCC1395, cell line HCC1395): 0.0158 µM
GI50 (HCC1419, HCC1419 cell line, censored GI50 values): 0.692 µM
GI50 (HCC1419, cell line HCC1419): 0.692 µM
GI50 (HCC1428, HCC1428 cell line, censored GI50 values): 16.6 µM
GI50 (HCC1428, cell line HCC1428): 16.6 µM
GI50 [2]: 0.00794 µM
GI50 (HCC1500, cell line HCC1500): 0.00794 µM
GI50 [3]: 0.00871 µM
GI50 (HCC1806, cell line HCC1806): 0.00871 µM
GI50 [4]: 0.00708 µM
GI50 (HCC1954, cell line HCC1954): 0.00708 µM
GI50 (MCF7, cell line MCF7): 0.0162 µM
GI50 (MDA-MB-231, cell line MDAMB231): 0.00525 µM
GI50 (MDA-MB-361, cell line MDAMB361): 0.0132 µM
GI50 (MDA-MB-415, cell line MDAMB415): 0.00525 µM
GI50 (MDA-MB-436, cell line MDAMB436): 0.0427 µM
GI50 (MDA-MB-453, cell line MDAMB453): 0.0102 µM
GI50 (MDA-MB-468, cell line MDAMB468): 0.00871 µM
GI50 (SK-BR-3, cell line SKBR3): 0.0112 µM
GI50 (SUM52PE, cell line SUM52PE): 0.0049 µM
GI50 (SUM149PT, cell line SUM149PT): 0.00933 µM
GI50 (SUM185PE, cell line SUM185PE): 0.024 µM
GI50 (SUM-159-PT, cell line SUM159PT): 0.0151 µM
GI50 (UACC-812, cell line UACC812): 0.00912 µM
GI50 (UACC-893, cell line UACC893): 0.0117 µM
GI50 (ZR-75-1, cell line ZR751): 0.0275 µM
GI50 (ZR-75-30, cell line ZR7530): 0.0219 µM
GI50 (ZR-75B, cell line ZR75B): 0.00794 µM
GI50 (cell line 600MPE): 0.0661 µM
GI50 (cell line HCC2185): 0.00724 µM
GI50 (cell line HCC3153): 0.02 µM
GI50 (cell line LY2): 0.0105 µM
GI50 (cell line MDAMB134V): 0.01 µM
GI50 (cell line MDAMB175V): 0.0195 µM
GI50 (cell line SUM1315MO): 0.00617 µM

Nc1nc2[nH]cc(CCc3ccc(C(=O)N[C@@H](CCC(=O)O)C(=O)O)cc3)c2c(=O)[nH]1 [Pemetrexed]
GI50 (AU565, cell line AU565): 2950 µM
GI50 (BT-474, cell line BT474): 2950 µM
GI50 (BT-483, cell line BT483): 2950 µM
GI50 (BT-549, cell line BT549): 2950 µM
GI50 [1]: 1480 µM
GI50 (CAMA-1, cell line CAMA1): 1480 µM
GI50 (HCC38, cell line HCC38): 2950 µM
GI50 (HCC70, cell line HCC70): 2950 µM
GI50 (HCC202, HCC202 cell line, censored GI50 values): 0.0209 µM
GI50 (HCC202, cell line HCC202): 0.0209 µM
GI50 (HCC1143, cell line HCC1143): 2950 µM
GI50 (HCC1187, cell line HCC1187): 2950 µM
GI50 (HCC1419, cell line HCC1419): 2950 µM
GI50 (HCC1428, cell line HCC1428): 2950 µM
GI50 [2]: 0.501 µM
GI50 (HCC1500, cell line HCC1500): 0.501 µM
GI50 [3]: 1480 µM
GI50 (HCC1806, cell line HCC1806): 1480 µM
GI50 (HCC1937, HCC1937 cell line, censored GI50 values): 155 µM
GI50 (HCC1937, cell line HCC1937): 155 µM
GI50 [4]: 0.214 µM
GI50 (HCC1954, cell line HCC1954): 0.214 µM
GI50 (LY2 cell line, censored GI50 values): 0.468 µM
GI50 (MCF7, cell line MCF7): 2950 µM
GI50 (MDA-MB-157, cell line MDAMB157): 2950 µM
GI50 (MDA-MB-361, MDAMB361 cell line, censored GI50 values): 0.49 µM
GI50 (MDA-MB-361, cell line MDAMB361): 0.49 µM
GI50 (MDA-MB-436, cell line MDAMB436): 2950 µM
GI50 (MDA-MB-453, MDAMB453 cell line, censored GI50 values): 33.9 µM
GI50 (MDA-MB-453, cell line MDAMB453): 33.9 µM
GI50 (MDA-MB-468, MDAMB468 cell line, censored GI50 values): 1480 µM
GI50 (MDA-MB-468, cell line MDAMB468): 1480 µM
GI50 (SK-BR-3, SKBR3 cell line, censored GI50 values): 1480 µM
GI50 (SK-BR-3, cell line SKBR3): 1480 µM
GI50 (SUM52PE, cell line SUM52PE): 2950 µM
GI50 (SUM185PE, cell line SUM185PE): 2950 µM
GI50 (T47D, cell line T47D): 2950 µM
GI50 (UACC-812, cell line UACC812): 2950 µM
GI50 (ZR-75-1, ZR751 cell line, censored GI50 values): 204 µM
GI50 (ZR-75-1, cell line ZR751): 204 µM
GI50 (cell line HCC2185): 2950 µM
GI50 (cell line HCC3153): 2950 µM
GI50 (cell line LY2): 0.468 µM
GI50 (cell line MDAMB134V): 2950 µM
GI50 (cell line SUM1315MO): 2950 µM
